Measurements published in PubChem BioAssay (NCI).
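Test compounds were applied to cells in 96-well plates for 48 hours at 5 doses. Abbreviation: GI50, concentration required for 50% inhibition of growth. TGI: total growth inhibition.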

Assays:
Experiment in all cases: growth of human tumour cells (NCI), 48 h
BT-549 breast = test system: BT-549 breast
KM20L2 colon = test system: KM20L2 colon
LXFL 529 NSCLC = test system: LXFL 529 NSCLC
RXF-631 renal = test system: RXF-631 renal
XF 498 CNS = test system: XF 498 CNS
MDA-N = test system: MDA-N

N[C@@H]1C(=O)N2C(C(=O)OC(c3ccccc3)c3ccccc3)=C(CCl)CS[C@H]12
GI50 (BT-549 breast): 25.4 µM | TGI (BT-549 breast): 62.8 µM

O=[N+]([O-])c1ccc(Cl)c(C2CC(c3cccc4ccccc34)=Nc3ccccc3S2)c1 (stereo unspecified)
TGI (KM20L2 colon): > 100 µM | TGI (LXFL 529 NSCLC): 88.9 µM | TGI (RXF-631 renal): > 100 µM

O=C(/C=C/c1ccco1)c1ccc(NCc2nc3ccccc3[nH]2)cc1
TGI (KM20L2 colon): 35.1 µM | TGI (LXFL 529 NSCLC): 28.5 µM

CN(C)c1ccc(/C=C/c2ccc(/C=C/c3ccc(N(C)C)cc3)cc2)cc1
TGI (KM20L2 colon): > 100 µM | TGI (LXFL 529 NSCLC): > 100 µM | TGI (RXF-631 renal): > 100 µM

O=[N+]([O-])c1ccc(-c2noc(-c3ccc(Cl)cc3)c2C2=NCCN2)cc1
TGI (KM20L2 colon): > 100 µM | TGI (LXFL 529 NSCLC): > 100 µM | TGI (XF 498 CNS): > 100 µM

ON(Cc1ccccc1)C(=S)c1ccccc1
TGI (BT-549 breast): > 100 µM | TGI (KM20L2 colon): > 100 µM | TGI (LXFL 529 NSCLC): > 100 µM | TGI (MDA-N): > 100 µM | TGI (RXF-631 renal): > 100 µM | TGI (XF 498 CNS): > 100 µM

Cc1cc2cc3ccc(N(C)C)cc3nc2cc1N
GI50 (BT-549 breast): 1.64 µM | TGI (BT-549 breast): 3.82 µM

Oc1ccc(-c2nc3ccc4[nH]ncc4c3c3c2CCCC3)c(F)c1
GI50 (BT-549 breast): 1.73 µM | TGI (BT-549 breast): 8.87 µM

CC1=CC(=O)C(C(C)C)=CC1=Nc1cc(Br)c(O)c(Br)c1
GI50 (BT-549 breast): 1.69 µM | TGI (BT-549 breast): 5.64 µM

O=C1NC(=O)C(=Nc2cccc3c(=O)[nH][nH]c(=O)c23)C(c2nc3ccccc3s2)C1=O (stereo unspecified)
TGI (KM20L2 colon): > 100 µM | TGI (LXFL 529 NSCLC): > 100 µM | TGI (RXF-631 renal): > 100 µM | TGI (XF 498 CNS): > 100 µM

COC(=O)/C(=N/Nc1cccc(Cl)c1)C(C(=O)C(=O)Nc1cccc(Cl)c1C)c1nc2ccccc2nc1C (stereo unspecified)
TGI (KM20L2 colon): > 100 µM

S=C(Nc1ccc(N=Nc2ccccc2)cc1)SCc1ccccc1
TGI (BT-549 breast): 40.3 µM

CCN(CC)c1ccc(N=Nc2ccc([N+](=O)[O-])cc2OC(=O)/C=C/c2ccccc2)c(OC(=O)/C=C/c2ccccc2)c1
TGI (LXFL 529 NSCLC): > 100 µM | TGI (RXF-631 renal): > 100 µM | TGI (XF 498 CNS): > 100 µM

Cc1cc(-c2ccccc2)nc(Nc2nc3ccccc3o2)n1
TGI (KM20L2 colon): > 100 µM | TGI (LXFL 529 NSCLC): > 100 µM | TGI (XF 498 CNS): > 100 µM

NC(=O)c1ccccc1NC(=O)C(=O)Cc1nc2ccccc2[nH]c1=O
TGI (KM20L2 colon): > 100 µM | TGI (LXFL 529 NSCLC): > 100 µM | TGI (RXF-631 renal): > 100 µM

COc1cc(OC)c2nccc(NCCCN(C)C)c2c1[N+](=O)[O-]
TGI (BT-549 breast): > 100 µM | TGI (MDA-N): > 100 µM

O=C(CSc1ncn[nH]1)C[P+](c1ccccc1)(c1ccccc1)c1ccccc1
TGI (KM20L2 colon): > 100 µM | TGI (LXFL 529 NSCLC): > 100 µM | TGI (XF 498 CNS): > 100 µM

Cc1cc(Nc2nc(-c3cccnc3)nc3ccccc23)n[nH]1
GI50 (BT-549 breast): 4.24 µM | TGI (BT-549 breast): > 100 µM

Cn1c(=O)c(NC(=O)C(Cl)(Cl)Cl)nc2ccccc21
TGI (KM20L2 colon): > 100 µM | TGI (LXFL 529 NSCLC): > 100 µM | TGI (RXF-631 renal): > 100 µM | TGI (XF 498 CNS): > 100 µM

Nc1cc(O)ccc1N=Nc1ccc(-c2nc3ccccc3[nH]2)cc1
GI50 (BT-549 breast): > 100 µM | TGI (BT-549 breast): > 100 µM

Cc1ccc(C(NC(=O)c2ccccc2)c2ccc3cccnc3c2O)cc1 (stereo unspecified)
GI50 (BT-549 breast): 0.524 µM | TGI (BT-549 breast): > 40.6 µM

CC(=O)c1c(CN(C)c2ccccc2)n([O-])c2ccccc2[n+]1=O
GI50 (BT-549 breast): 25.1 µM | TGI (BT-549 breast): 86.6 µM

COc1ccc2c(c1)CC[C@@H]1[C@@H]2CC[C@]2(C)[C@@H](NC(=O)/C=C/c3ccc(O)c(O)c3)CC[C@@H]12
GI50 (BT-549 breast): 5.56 µM | TGI (BT-549 breast): 20.3 µM

COC(=O)C1OC2(CCCC3CC32)O[C@H]1C(=O)OC (stereo partly specified)
TGI (BT-549 breast): > 100 µM | TGI (MDA-N): > 100 µM

Cc1ccc(NC(=O)C2C(=O)N(c3ccc(C)c(C)c3)C(=O)/C2=N\NC(N)=O)cc1C (stereo unspecified)
TGI (KM20L2 colon): > 100 µM | TGI (LXFL 529 NSCLC): > 100 µM | TGI (XF 498 CNS): > 100 µM

CCOc1ccc2c(c1)[n+]([O-])c(-c1ccc(Br)cc1)c(N)[n+]2[O-]
TGI (KM20L2 colon): > 100 µM | TGI (LXFL 529 NSCLC): > 100 µM | TGI (RXF-631 renal): > 100 µM | TGI (XF 498 CNS): > 100 µM

NC1=NC(c2ccc(Cl)cc2)N(c2ccc(S(N)(=O)=O)cc2)C(N)=N1 (stereo unspecified)
TGI (BT-549 breast): > 100 µM | TGI (MDA-N): > 100 µM

Oc1ccc(O)c(-c2cc(-c3ccc(Cl)cc3)nn2-c2ccccc2)c1
GI50 (BT-549 breast): 21 µM | TGI (BT-549 breast): 52.3 µM

CCn1c(SC(C)C(=O)c2c(C)n(C)n(-c3ccccc3)c2=O)nc2ccccc2c1=O (stereo unspecified)
TGI (KM20L2 colon): > 100 µM | TGI (LXFL 529 NSCLC): > 100 µM

Nc1c(O)cc(N=C2C(=O)C=CC=C2C(=O)O)c(O)c1C(=O)O
TGI (KM20L2 colon): > 100 µM | TGI (LXFL 529 NSCLC): > 100 µM | TGI (RXF-631 renal): > 100 µM | TGI (XF 498 CNS): > 100 µM

CN(COC(=O)c1ccccc1)c1nc(N(C)COC(=O)c2ccccc2)nc(N(C)COC(=O)c2ccccc2)n1
TGI (MDA-N): > 100 µM

Cc1noc2c1C(=O)CCC2
TGI (KM20L2 colon): > 100 µM | TGI (LXFL 529 NSCLC): > 100 µM | TGI (XF 498 CNS): > 100 µM

S=c1nc(COc2ccc(Cl)cc2Cl)[nH][nH]1
TGI (KM20L2 colon): > 100 µM | TGI (LXFL 529 NSCLC): > 100 µM | TGI (XF 498 CNS): > 100 µM

Cc1cccc(C(C)C)c1N1C(=O)C(=O)C(c2nc3ccccc3o2)C(=O)C1=O
TGI (KM20L2 colon): > 100 µM | TGI (LXFL 529 NSCLC): > 100 µM | TGI (RXF-631 renal): > 100 µM | TGI (XF 498 CNS): 69.1 µM

S=c1[nH]nc(Cc2ccccc2)c(=S)[nH]1
TGI (BT-549 breast): 96.9 µM | TGI (LXFL 529 NSCLC): > 100 µM | TGI (MDA-N): > 100 µM | TGI (RXF-631 renal): > 100 µM | TGI (XF 498 CNS): > 100 µM

Cc1nc2c(o1)C(=Nc1ccccc1)c1ccccc1C2=O
TGI (KM20L2 colon): 31.2 µM | TGI (LXFL 529 NSCLC): 24.1 µM | TGI (XF 498 CNS): 12.5 µM

CC(=O)OC1=CC2=CC[C@H]3[C@@H]4CCC(=O)[C@@]4(C)CC(=O)[C@]3(S)[C@@]2(C)CC1
TGI (BT-549 breast): > 100 µM | TGI (MDA-N): > 100 µM

COc1ccc(C(c2ccc(OCCN(C)C)cc2)c2cc3ccccc3c3ccccc23)cc1 (stereo unspecified)
GI50 (BT-549 breast): 1.78 µM | TGI (BT-549 breast): 3.35 µM
